These results are taken from US20250345391A1, “COMPOSITIONS AND METHODS FOR THE TREATMENT OF SEPSIS” (Children's Hospital Medical Center, priority 2022, published 2025).

Assay [1] relates to endothelial glycocalyx and mitochondria of thoracic aortas. As to the kind of experiment: Transmission electron microscopy of thoracic aortas with lanthanum staining after CLP. It is filed as in vivo, Male C57BL/6 mice. The following applies: 6 h after CLP; colivelin 100 μg/kg i.p. at 1 h after CLP; vs vehicle. The source says: The investigation conformed to the National Institutes of Health Guide for the Care and Use of Laboratory Animals (Eighth Edition, 2011) and was approved by the Institutional Animal Care and Use Committee of the Cincinnati Children's Hospital Medical Center. Male C57BL/6 mice were obtained from Charles River Laboratories International, Inc. (Wilmington, MA). Mice were used at 3-5 months of age to mimic the equivalent for human ranges from 20-25 years (29). Male mice only were chosen for the experimentation to avoid interference from female hormonal fluctuations in sepsis responses during the estrous cycle. Mice were housed in pathogen-free conditions under a 10-h light/14-h dark cycle with free access to food and water. Mice were anesthetized with 2.0% isoflurane in 50% oxygen and polymicrobial sepsis was induced by cecal ligation and puncture (CLP) (30). After a midline laparotomy, the cecum was exteriorized, ligated and punctured twice with a 23-G needle. The cecum was then returned into the peritoneal cavity and the abdominal incision was closed. […]
Glycocalyx structure was assessed by transmission electron microscopy (35). […]

Assay [2] has as its system TNFα, IL-1β, IL-6, IL-10, KC, MIP-1α. The assay is described as follows: Plasma levels of cytokines after CLP sepsis (multiplex array). It is filed as in vivo, Male C57BL/6 mice. The following applies: 6 h after CLP, vs vehicle. From the text: The investigation conformed to the National Institutes of Health Guide for the Care and Use of Laboratory Animals (Eighth Edition, 2011) and was approved by the Institutional Animal Care and Use Committee of the Cincinnati Children's Hospital Medical Center. Male C57BL/6 mice were obtained from Charles River Laboratories International, Inc. (Wilmington, MA). Mice were used at 3-5 months of age to mimic the equivalent for human ranges from 20-25 years (29). Male mice only were chosen for the experimentation to avoid interference from female hormonal fluctuations in sepsis responses during the estrous cycle. Mice were housed in pathogen-free conditions under a 10-h light/14-h dark cycle with free access to food and water. Mice were anesthetized with 2.0% isoflurane in 50% oxygen and polymicrobial sepsis was induced by cecal ligation and puncture (CLP) (30). After a midline laparotomy, the cecum was exteriorized, ligated and punctured twice with a 23-G needle. The cecum was then returned into the peritoneal cavity and the abdominal incision was closed. After the procedure, mice were randomly assigned to three treatment groups: a vehicle-treated group received distilled water (200 μl/mouse) intraperitoneally (i.p.); a 100 μg colivelin-treated group received the colivelin at 100 μg/kg i.p., and a 200 μg colivelin-treated group received the colivelin at 200 μg/kg i.p. at 1 h after CLP. The intraperitoneal injection was chosen to allow for a rapid uptake and bioavailability of the peptide. All groups of mice also received fluid resuscitation (35 ml/kg normal saline solution subcutaneously) immediately after, at 3 h and 12 h after the CLP procedure. To minimize pain at the surgical incision site, lidocaine hydrochloride (1%, 4 mg/kg total dose) was applied locally immediately after the procedure. […] Mice were then sacrificed at 0, 6 and 18 h after CLP. Blood, lungs, kidneys, liver, and thoracic aortas were collected for biochemical assays. Plasma levels of tumor necrosis factor-α (TNFα), interleukin (IL)-1β, IL-6, IL-10, keratinocytes-derived chemokine (KC), and macrophage inflammatory proteins (MIP-1α) were used as indices of the systemic inflammatory response and were evaluated by a commercially available multiplex array system (Milliplex, Millipore Corporation, Billerica, MA). Plasma levels of endoglin, intercellular adhesion molecule-1 (ICAM-1), P-selectin, proprotein convertase subtilisin/kexin type 9 (PCSK9), and angiopoietin-2 (Ang 2) were used as indices of endothelial injury and were evaluated by a commercially available multiplex array system (R&D Systems, Minneapolis, MN). Plasma levels of syndecan-1 were used as indices of glycocalyx damage and were evaluated by a mouse syndecan-1 sandwich-type enzyme-linked immunosorbent assay (ELISA) kit (Boster Biological Technology Co., California, US). Assays were performed using the protocols recommended by the manufacturer.

[3] abbreviates: colivelin 100 or 200 μg/kg i.p. at 1 h after CLP, dose-independent.
The mark [4] stands for this setting: colivelin 100 or 200 μg/kg i.p., trend towards reduction.

On to Colivelin (SALLRSIPAPAGASRLLLLTGEIDLP), for which, in assay [1], the “Dense structure of endothelial glycocalyx in thoracic aorta (electron microscopy)” value was “appeared well preserved” and the “Mitochondria in thoracic aorta cells (electron microscopy)” value was “appeared normal with dense matrix in all cell types”. In addition, in assay [2] (setting [3]), the “Plasma levels of IL-10” value was “significantly decreased”, the “Plasma levels of MIP-1α” value was “significantly decreased” and the “Plasma levels of TNF-α” value is recorded as “significantly decreased”. In addition, in assay [2] (setting [4]), the “Plasma levels of IL-1β” value is recorded as “not statistically different” and the “Plasma levels of IL-6” value is listed as “not statistically different”. Moreover, the “Plasma levels of KC” value in assay [2] (colivelin at 200 μg/kg i.p. at 1 h after CLP) is “significantly reduced”.
